Measurements taken from DBAASP.
In brackets after ≈: the same amount, converted by molar mass. Values belong to the molecule of their own block, whether it stands above or below them.

Tests used:
Assay in all cases: ≥ marks a high value that may be exact or a test limit, other limits are often not marked, values filed in µg/mL are converted to µM
[1] = system: Micrococcus luteus ATCC 4698
[2] = system: Staphylococcus aureus USA 100
[3] = system: Staphylococcus epidermidis ATCC 12228
[4] = system: Escherichia coli DH5alpha
Bacillus subtilis = system: Bacillus subtilis
Klebsiella pneumoniae = system: Klebsiella pneumoniae
Proteus mirabilis = system: Proteus mirabilis
Shigella dysenteriae = system: Shigella dysenteriae
Micrococcus luteus = system: Micrococcus luteus
[5] = system: Staphylococcus aureus ATCC 6538
[6] = system: Staphylococcus epidermidis
Escherichia coli = system: Escherichia coli
Salmonella typhimurium = system: Salmonella typhimurium
Staphylococcus aureus = system: Staphylococcus aureus
Pseudomonas aeruginosa = system: Pseudomonas aeruginosa
[7] = system: Bacillus subtilis ATCC 23857
[8] = system: Escherichia coli ATCC 25922
[9] = system: Klebsiella pneumoniae ATCC 700603
[10] = system: Staphylococcus aureus ATCC 25923
Saccharomyces cerevisiae = system: Saccharomyces cerevisiae
[11] = system: Pseudomonas aeruginosa ATCC 15692
[12] = system: Staphylococcus aureus USA 300
[13] = system: Pseudomonas aeruginosa ATCC 9027
[14] = system: Candida albicans ATCC 90028
Escherichia coli JW0013 = system: Escherichia coli JW0013

MIC [1]: 0.6 µM (≈ 0.74 µg/mL)
SMILES: NCCCC[C@@H]1NC(=O)[C@H](CCCN=C(N)N)NC(=O)[C@H](CCCCN)NC(=O)[C@H](Cc2c[nH]c3ccccc23)NC(=O)[C@H](CCCCN)NC(=O)[C@H](CCCCN)NC(=O)[C@@H](N)CSSC[C@@H](C(=O)O)NC(=O)[C@H](CCCN=C(N)N)NC1=O [CKKWKRKRC]

MIC [2]: ≥ 100 µM
SMILES: NC(=O)[C@H](CCCN=C(N)N)NC(=O)[C@H](CCC(=O)O)NC(=O)[C@H](CCCN=C(N)N)NC(=O)[C@@H](N)CCC(=O)O [ERER]

MIC [3]: 180 µM (≈ 250 µg/mL)
MIC [4]: ≥ 194 µM
MIC (Bacillus subtilis): 8.98 µM (≈ 12.5 µg/mL)
MIC (Klebsiella pneumoniae): 18 µM (≈ 25 µg/mL)
MIC [1]: ≥ 35.9 µM
MIC (Proteus mirabilis): ≥ 144 µM
MIC (Shigella dysenteriae): 18 µM (≈ 25 µg/mL)
MIC (Micrococcus luteus): 4.52 µM (≈ 6.3 µg/mL)
MIC [5]: 71.8 µM (≈ 100 µg/mL)
MIC [6]: 2.23 µM (≈ 3.1 µg/mL)
MIC (Escherichia coli): 18 µM (≈ 25 µg/mL)
MIC (Salmonella typhimurium): ≥ 71.8 µM
MIC (Staphylococcus aureus): 2.23 µM (≈ 3.1 µg/mL)
MIC (Pseudomonas aeruginosa): 71.8 µM (≈ 100 µg/mL)
SMILES: CC(C)C[C@H](NC(=O)[C@@H](NC(=O)[C@H](CCCCN)NC(=O)[C@H](CO)NC(=O)[C@H](C)NC(=O)[C@@H](NC(=O)[C@H](CCCCN)NC(=O)[C@H](Cc1ccccc1)NC(=O)[C@H](CC(C)C)NC(=O)[C@H](C)NC(=O)CNC(=O)[C@H](CC(C)C)NC(=O)[C@@H](N)Cc1ccccc1)C(C)C)C(C)C)C(=O)O [FLGALFKVASKVL]

MIC [7]: ≥ 32 µM
MIC [8]: > 128 µM
SMILES: CC[C@H](C)[C@H](NC(=O)CN)C(=O)N[C@H](C(=O)N[C@@H](C)C(=O)NCC(=O)N[C@H](C(=O)N[C@H](C(=O)N[C@@H](C)C(=O)N[C@@H](CCCCN)C(=O)N[C@H](C(=O)N[C@@H](CCCCN)C(=O)N[C@@H](CCCCN)C(N)=O)[C@@H](C)CC)[C@@H](C)CC)[C@@H](C)CC)[C@@H](C)CC [GIIAGIIAKIKK]

MIC [7]: 8 µM (≈ 11 µg/mL)
MIC [8]: 64 µM (≈ 88.2 µg/mL)
SMILES: CC[C@H](C)[C@H](NC(=O)CN)C(=O)N[C@H](C(=O)N[C@@H](CCCN=C(N)N)C(=O)NCC(=O)N[C@H](C(=O)N[C@H](C(=O)N[C@@H](CCCCN)C(=O)N[C@H](C(=O)N[C@H](C(=O)N[C@@H](CCCCN)C(=O)N[C@@H](CCCN=C(N)N)C(N)=O)[C@@H](C)CC)[C@@H](C)CC)[C@@H](C)CC)[C@@H](C)CC)[C@@H](C)CC [GIIRGIIKIIKR]

MIC [7]: 4 µM (≈ 6.03 µg/mL)
MIC [9]: 16 µM (≈ 24.1 µg/mL)
MIC [10]: 16 µM (≈ 24.1 µg/mL)
MIC (Escherichia coli): 4 µM (≈ 6.03 µg/mL)
SMILES: CC[C@H](C)[C@H](NC(=O)[C@H](CCCCN)NC(=O)[C@H](CCCCN)NC(=O)[C@H](C)NC(=O)[C@@H](NC(=O)[C@H](C)NC(=O)[C@H](CC(C)C)NC(=O)[C@H](CC(C)C)NC(=O)[C@H](CCCCN)NC(=O)[C@H](CCCCN)NC(=O)[C@H](CC(C)C)NC(=O)[C@H](CC(N)=O)NC(=O)CN)C(C)C)C(=O)N[C@@H](CC(C)C)C(N)=O [GNLKKLLAVAKKIL]

MIC [8]: 32 µM (≈ 80.6 µg/mL)
MIC (Saccharomyces cerevisiae): ≥ 64 µM
MIC (Micrococcus luteus): 0.5 µM (≈ 1.26 µg/mL)
MIC [10]: > 256 µM
MIC [11]: ≥ 128 µM
SMILES: CC[C@H](C)[C@H](NC(=O)[C@H](CO)NC(=O)[C@H](CO)NC(=O)[C@H](C)NC(=O)[C@H](Cc1c[nH]c2ccccc12)NC(=O)CN)C(=O)NCC(=O)N[C@@H](CO)C(=O)N[C@H](C(=O)N[C@@H](CC(C)C)C(=O)NCC(=O)N[C@@H](CCCCN)C(=O)N[C@@H](Cc1ccccc1)C(=O)N[C@@H](C)C(=O)N[C@@H](CCCCN)C(=O)NCC(=O)NCC(=O)N[C@@H](C)C(=O)N[C@@H](CCC(N)=O)C(=O)N[C@@H](C)C(=O)N[C@@H](Cc1ccccc1)C(=O)N[C@@H](CC(C)C)C(=O)N[C@@H](CCC(N)=O)C(=O)N1CCC[C@H]1C(=O)N[C@@H](CCCCN)C(=O)O)[C@@H](C)CC [GWASSIGSILGKFAKGGAQAFLQPK]

MIC [12]: ≥ 100 µM
MIC [13]: > 100 µM
MIC [14]: ≥ 100 µM
MIC [2]: ≥ 100 µM
SMILES: NCCCC[C@H](NC(=O)[C@H](Cc1c[nH]c2ccccc12)NC(=O)[C@H](CCCCN)NC(=O)[C@H](Cc1c[nH]c2ccccc12)NC(=O)[C@@H](N)CCCCN)C(=O)N[C@@H](Cc1c[nH]c2ccccc12)C(=O)O [KWKWKW]

MIC [7]: 8 µM (≈ 11.8 µg/mL)
MIC [8]: 8 µM (≈ 11.8 µg/mL)
MIC [9]: 16 µM (≈ 23.7 µg/mL)
MIC [10]: 16 µM (≈ 23.7 µg/mL)
MIC [13]: 16 µM (≈ 23.7 µg/mL)
SMILES: CC[C@H](C)[C@H](NC(=O)[C@H](CCCCN)NC(=O)[C@H](CCCCN)NC(=O)[C@H](C)NC(=O)[C@H](C)NC(=O)[C@H](C)NC(=O)[C@H](CC(C)C)NC(=O)[C@H](CC(C)C)NC(=O)[C@H](C)NC(=O)[C@H](CCCCN)NC(=O)[C@H](CC(C)C)NC(=O)[C@H](CC(N)=O)NC(=O)[C@@H](N)CC(C)C)C(=O)N[C@@H](CC(C)C)C(N)=O [LNLKALLAAAKKIL]

MIC [7]: ≥ 128 µM
MIC [8]: > 128 µM
MIC [9]: > 128 µM
MIC [10]: > 128 µM
MIC [13]: > 128 µM
SMILES: CC(C)C[C@H](NC(=O)[C@H](C)NC(=O)[C@H](CCCCN)NC(=O)[C@H](CC(C)C)NC(=O)[C@H](CC(N)=O)NC(=O)[C@@H](N)CC(C)C)C(=O)N[C@@H](CC(C)C)C(=O)N[C@@H](C)C(=O)N[C@H](C(=O)N[C@@H](C)C(=O)N[C@@H](CCCCN)C(=O)N[C@@H](CCCCN)C(N)=O)C(C)C [LNLKALLAVAKK]

MIC [2]: ≥ 100 µM
SMILES: CC(C)C[C@H](NC(=O)[C@H](CCCN=C(N)N)NC(=O)[C@@H](N)CC(C)C)C(=O)N[C@@H](CCCN=C(N)N)C(N)=O [LRLR]

MIC [2]: ≥ 100 µM
SMILES: NC(=O)[C@H](CCCN=C(N)N)NC(=O)[C@H](CCCN=C(N)N)NC(=O)[C@H](CCCN=C(N)N)NC(=O)[C@@H](N)CCCN=C(N)N [RRRR]

MIC (Escherichia coli JW0013): 1.34 µM (≈ 3.3 µg/mL)
SMILES: CC[C@H](C)[C@H](NC(=O)[C@H](CCCN=C(N)N)NC(=O)[C@H](CCCN=C(N)N)NC(=O)[C@@H]1CCCN1C(=O)[C@@H]1CCCN1C(=O)[C@H](CCCN=C(N)N)NC(=O)[C@@H]1CCCN1C(=O)[C@H](CCCN=C(N)N)NC(=O)[C@@H]1CCCN1C(=O)[C@H](CCCN=C(N)N)NC(=O)[C@H](CCCN=C(N)N)NC(=O)[C@@H]1CCCN1C(=O)[C@H](CCCCN)NC(=O)[C@H](CCCCN)NC(=O)[C@H](CC(=O)O)NC(=O)[C@@H](N)C(C)C)C(=O)N[C@@H](Cc1ccc(O)cc1)C(=O)N[C@@H](CC(N)=O)C(=O)N[C@@H](CCCN=C(N)N)C(N)=O [VDKKPRRPRPRPPRRIYNR]

MIC (Escherichia coli JW0013): 0.973 µM (≈ 2.4 µg/mL)
SMILES: CC[C@H](C)[C@H](NC(=O)[C@H](CCCN=C(N)N)NC(=O)[C@H](CCCN=C(N)N)NC(=O)[C@@H]1CCCN1C(=O)[C@@H]1CCCN1C(=O)[C@H](CCCN=C(N)N)NC(=O)[C@H](CCCCN)NC(=O)[C@H](CCCN=C(N)N)NC(=O)[C@@H]1CCCN1C(=O)[C@H](CCCCN)NC(=O)[C@H](Cc1ccc(O)cc1)NC(=O)[C@@H]1CCCN1C(=O)[C@H](CCCCN)NC(=O)[C@H](CCCCN)NC(=O)[C@H](CC(=O)O)NC(=O)[C@@H](N)C(C)C)C(=O)N[C@@H](Cc1ccc(O)cc1)C(=O)N[C@@H](CC(N)=O)C(=O)N[C@@H](CCCN=C(N)N)C(N)=O [VDKKPYKPRKRPPRRIYNR]

MIC (Escherichia coli JW0013): 0.685 µM (≈ 1.7 µg/mL)
SMILES: CC[C@H](C)[C@H](NC(=O)[C@H](CCCN=C(N)N)NC(=O)[C@H](CCCN=C(N)N)NC(=O)[C@@H]1CCCN1C(=O)[C@@H]1CCCN1C(=O)[C@H](CCCN=C(N)N)NC(=O)[C@H](CCCN=C(N)N)NC(=O)[C@H](CCCN=C(N)N)NC(=O)[C@@H]1CCCN1C(=O)[C@H](CC(C)C)NC(=O)[C@H](Cc1ccc(O)cc1)NC(=O)[C@@H]1CCCN1C(=O)[C@H](CCCCN)NC(=O)[C@H](CCCCN)NC(=O)[C@H](CC(=O)O)NC(=O)[C@@H](N)C(C)C)C(=O)N[C@@H](Cc1ccc(O)cc1)C(=O)N[C@@H](CC(N)=O)C(=O)N[C@@H](CCCN=C(N)N)C(N)=O [VDKKPYLPRRRPPRRIYNR]

MIC (Escherichia coli JW0013): 1.99 µM (≈ 4.8 µg/mL)
SMILES: CC[C@H](C)[C@H](NC(=O)[C@H](CCCN=C(N)N)NC(=O)[C@H](CCCN=C(N)N)NC(=O)[C@@H]1CCCN1C(=O)[C@@H]1CCCN1C(=O)[C@H](CCCN=C(N)N)NC(=O)[C@@H]1CCCN1C(=O)[C@H](CCCN=C(N)N)NC(=O)[C@@H]1CCCN1C(=O)[C@H](CC(C)C)NC(=O)[C@H](Cc1c[nH]c2ccccc12)NC(=O)[C@@H]1CCCN1C(=O)[C@@H]1CCCN1C(=O)[C@H](CCCCN)NC(=O)[C@H](CC(=O)O)NC(=O)[C@@H](N)C(C)C)C(=O)N[C@@H](Cc1ccc(O)cc1)C(=O)N[C@@H](CC(N)=O)C(=O)N[C@@H](CCCN=C(N)N)C(N)=O [VDKPPWLPRPRPPRRIYNR]
